Laboratory results published in PubChem BioAssay AID1996.
Converted amounts (≈) assume the structure as drawn.

Details: buffer; pH 7.4; 200.0 µM

| solubility kinetic [µg/mL] | Compound |
| --- | --- |
| 5.2 (≈ 15.3 µM) | CC(=O)Nc1ccc(/C=C(\C#N)S(=O)(=O)c2ccc(C)cc2)cc1 |
| 11.6 (≈ 35.8 µM) | CCCC(=O)Nc1cccc(Oc2ccc3c(c2)C(=O)NC3=O)c1 |
| > 44.9 | COc1ccccc1N1Cc2ccc(OC)c(OC)c2C1=O |
| 5.5 (≈ 17 µM) | CC(CCc1ccccc1)NC(=O)c1cnc(Cl)c(Cl)c1 (configuration not stated) |
| < 0.2 | O=[N+]([O-])c1ccc(N2CCN(c3ccccc3)CC2)cc1 |
| > 31.2 | Cc1cc(C(=O)N2CCC(C)CC2)on1 |
| > 47.9 | Cc1[nH]c2ccccc2c1C(c1ccncc1)N1CCC(C)CC1 (configuration not stated) |
| > 41 | O=C(NCC1CCCO1)c1ccc(F)c2ccccc12 (configuration not stated) |
| 35.6 (≈ 115 µM) | CC(C)(C)NC(=O)c1ccccc1-c1nc2ccccc2s1 |
| < 0.3 | Cc1cc(C)cc(NC(=O)C(=S)NCc2ccccc2)c1 |
| > 51.1 | CCn1c(NC(=O)C(C)C)c(-c2cccs2)c(=O)c2ccccc21 |
| 7.4 (≈ 19.5 µM) | CCOC(=O)C1=C(C)NC2=C(C(=O)c3ccccc32)C1c1ccc([N+](=O)[O-])o1 (configuration not stated) |
| 0.9 (≈ 2.66 µM) | Cc1cc(=O)oc2cc(NC(=O)Cc3ccccc3[N+](=O)[O-])ccc12 |
| 5.1 (≈ 18.9 µM) | CC1(C)CN(C(=S)Nc2ccc(F)cc2F)C1=O |
| 3.9 (≈ 13.3 µM) | COC(=O)c1cn(C(=O)c2cccc(C)c2)c2ccccc12 |
| 37.3 (≈ 131 µM) | COc1cc2c(cc1OC)C(c1ccccc1O)NCC2 (configuration not stated) |
| > 43 | Cc1ccccc1-c1nc2ccc(Cl)cc2c(=O)n1O |
| > 33.5 | O=C(Nc1ccc(F)c(F)c1)c1ccco1 |
| > 48.7 | COCCN1CCn2c(nc3cc(NS(C)(=O)=O)ccc32)C1 |
| > 47.3 | Cc1cc(NC(=O)CSc2nncn2-c2ccccc2)no1 |

Continued, compound first:

| Compound | solubility kinetic [µg/mL] |
| --- | --- |
| COc1ccc(/C=C/C(=O)NC(=S)N2CCOCC2)cc1 | > 46 |
| Cc1cc(OCC(O)CN2CCOCC2)cc(C)c1Cl.Cl (configuration not stated) | 45.2 |
| Cc1ccc(NC(=O)Cc2c[nH]c3ccccc23)cc1 | 3.2 (≈ 12.1 µM) |
| Cc1c(C(=O)NCc2ccccn2)oc2c(Cl)cccc12 | > 45.1 |
| COc1ccc(N2C(=O)c3ccccc3S2(=O)=O)cc1 | 1.5 (≈ 5.18 µM) |
| COc1ccc(O)c(C(=O)c2cnc3c(c2)CN(C)C(=O)N3)c1 | 8 (≈ 25.5 µM) |
| CC(C)c1nc2sc3c(=S)nc[nH]c3c2c2c1CCC2 | 4.5 (≈ 14.9 µM) |
| COC(=O)c1ccccc1NC(=O)Nc1ccc(Cl)cn1 | > 45.9 |
| COc1cc([N+](=O)[O-])cc([N+](=O)[O-])c1NC(=O)N1CCOCC1 | > 48.9 |
| O=C(NCCc1ccccc1)c1ccc(-c2ccc(F)cc2)o1 | 7.1 (≈ 23 µM) |
| Cc1cccc(OCCNC(=O)CCc2ccccc2)c1 | 34.4 (≈ 121 µM) |
| COc1cccc2c1O/C(=N\O)C(C(=O)Nc1ccc(C)cc1)C2 (configuration not stated) | 45.7 (≈ 140 µM) |
| O=C(Nc1cccc(S(=O)(=O)N2CCCCC2)c1)C1COc2ccccc2O1 (configuration not stated) | 6.6 (≈ 16.4 µM) |
| C/C(=N/OC(=O)c1ccc(Br)cc1)c1ccc(C)cc1 | < 0.7 |
| Cc1ccccc1OCC(=O)NCCNC(=O)c1ccccn1 | > 47 |
| COc1cc(Cl)c(C)cc1NC(=O)COC(=O)C1CC1C (configuration not stated) | 29.9 (≈ 95.9 µM) |
| CC(=O)Nc1nc(-c2cccc3ccccc23)cs1 | 5.3 (≈ 19.8 µM) |
| COc1ccc(N2C(=O)CC(c3ccc([N+](=O)[O-])cc3)C2=O)cc1 (configuration not stated) | 14.9 (≈ 45.7 µM) |
| CCC(C(=O)N1CCN(c2ncccn2)CC1)c1ccccc1 (configuration not stated) | 41.7 (≈ 134 µM) |
| Cc1ccc(S(=O)(=O)c2nc(-c3ccccc3Cl)oc2N2CCN(C)CC2)cc1 | 25.2 (≈ 58.3 µM) |
| CCCCc1nc2cc(Cl)ccc2o1 | < 0.4 |
| Cc1ccc2c(c1)CCCN2C(=O)CSc1ccccc1 | 19.5 (≈ 65.6 µM) |
| CC(C)C(NC(=O)c1ccco1)C(=O)NCc1ccc(C(=O)O)cc1 (configuration not stated) | > 51.7 |
| CCOC(=O)c1sc(=NC(=O)CCSc2ccccc2)n(C)c1C | < 0.4 |
| Nc1c2c(nc3cccc(Cl)c13)N(c1ccccc1)CC2 | 0.9 (≈ 3.04 µM) |
| O=C1C/C(=C\c2c(F)cccc2Cl)N2CCC1CC2 | 39.7 (≈ 142 µM) |
| Cl.Nc1ccc(Cc2ccccn2)cc1 | > 38.6 |
